US6706663B2, “Herbicidal 3-heterocyclic substituted benzisothiazole and benzisoxazole compounds” (Wyeth, priority 2000, dated 2004)

Assays:
[1] = system: IPOHE (Ipomoea hederacea); experiment: Preemergence herbicidal evaluation; assay type: in vivo, (L.) Jacq.; conditions: rated 4-5 weeks after treatment
SETVI (Setaria viridis) [2] = experiment: Preemergence herbicidal evaluation; assay type: in vivo, (L.) Beau; conditions: rated 4-5 weeks after treatment
Method in brief: (§1)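 Visual 0–9 rating versus control (stand, vigor, malformation, size, chlorosis, overall appearance), scored four to five weeks post-treatment. Preemergence spray of aqueous acetone solution onto freshly seeded soil cups; plants grown under conventional greenhouse care.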

[3] = system: ECHCG (Echinochloa crus-galli); experiment: Preemergence herbicidal evaluation; assay type: in vivo, (L.) Beau; conditions: rated 4-5 weeks after treatment
Method in brief: as §1

[4] = system: ECHCG (Echinochloa crus-galli); experiment: Postemergence herbicidal evaluation; assay type: in vivo, (L.) Beau; conditions: postemergence
Method in brief: (§2)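 Seedlings grown about two weeks in flats, sprayed, then kept under standard greenhouse care. Rated visually 4–5 weeks after treatment on a 0–9 scale (stand, vigour, malformation, size, chlorosis, overall appearance) relative to untreated control; repeat tests averaged.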

CYPIR (Cyperus iria) = experiment: Flooded paddy, preemergence weed control; assay type: in vivo; conditions: rated 3-4 weeks after treatment, 0-9 rating scale
Method in brief: (§3)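 Under paddy conditions, seeds or vegetative propagules go into the top 0.5 cm of silt loam; the soil is then flooded to 1.5–3 cm and kept so. Treated pots stay in a greenhouse; response is rated 0-9 visually versus control.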

[5] = system: MOOVA (Monochoria vaginalis); experiment: Flooded paddy, preemergence weed control; assay type: in vivo, Presl.; conditions: rated 3-4 weeks after treatment, 0-9 rating scale
Method in brief: as §3

GALAP (Galium aparine) = experiment: Postemergence herbicidal evaluation; assay type: in vivo; conditions: postemergence
Method in brief: as §2

[6] = system: GLXMAW (Soybean, Williams); experiment: Postemergence herbicidal evaluation; assay type: in vivo, Glycine max, (L.) Merr. cv Williams; conditions: postemergence
Method in brief: as §2

[7] = system: SAGPY (Sagittaria pygmaea); experiment: Flooded paddy, preemergence weed control; assay type: in vivo, L.; conditions: rated 3-4 weeks after treatment, 0-9 rating scale
Method in brief: as §3

[8] = system: AMBEL (Ambrosia artemisifolia); experiment: Preemergence herbicidal evaluation; assay type: in vivo, L.; conditions: rated 4-5 weeks after treatment
Method in brief: as §1

[9] = system: CHEAL (Chenopodium album); experiment: Preemergence herbicidal evaluation; assay type: in vivo, L.; conditions: rated 4-5 weeks after treatment
Method in brief: as §1

[10] = system: CASOB (Cassia obtusifolia); experiment: Preemergence herbicidal evaluation; assay type: in vivo, L.; conditions: rated 4-5 weeks after treatment
Method in brief: as §1

[11] = system: ECHORC (Echinochloa oryzoides); experiment: Flooded paddy, preemergence weed control; assay type: in vivo, Echinochloa oryzoides (Ard.) Fritsch.; conditions: rated 3-4 weeks after treatment, 0-9 rating scale
Method in brief: as §3

[12] = system: IPOHE (Ipomoea hederacea); experiment: Postemergence herbicidal evaluation; assay type: in vivo, (L.) Jacq.; conditions: postemergence
Method in brief: as §2

ORYSAT (Rice, Tebonnet) [13] = experiment: Flooded paddy, post-transplant rice tolerance; assay type: in vivo, Oryza sativa, (L.) Tebonnet; conditions: flooded paddy, post-transplant rice, rated 3-4 weeks after treatment, 0-9 rating scale
Method in brief: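 Visual 0-9 rating against a control, covering stand, vigor, malformation, size, chlorosis and overall appearance. Treatment was applied after transplanting paired ten-day-old seedlings into flooded silt loam, with water kept 1.5 to 3 cm deep on greenhouse benches.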

ORYSAT (Rice, Tebonnet) [14] = experiment: Postemergence herbicidal evaluation; assay type: in vivo, Oryza sativa, (L.) Tebonnet; conditions: postemergence
Method in brief: as §2

[15] = system: ABUTH (Abutilon theophrasti); experiment: Postemergence herbicidal evaluation; assay type: in vivo, Medic.; conditions: postemergence
Method in brief: as §2

ZEAMX (Corn, Field) = experiment: Postemergence herbicidal evaluation; assay type: in vivo, Zea mays, L.; conditions: postemergence
Method in brief: as §2

ORYSAT (Rice, Tebonnet) [16] = experiment: Preemergence herbicidal evaluation; assay type: in vivo, Oryza sativa, (L.) Tebonnet; conditions: rated 4-5 weeks after treatment
SETVI (Setaria viridis) [17] = experiment: Postemergence herbicidal evaluation; assay type: in vivo, (L.) Beau; conditions: postemergence
Method in brief: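 Visual injury score (0-9: stand, vigor, malformation, size, chlorosis, overall appearance vs untreated control) taken four to five weeks post-spray. Two-week-old seedlings received about 0.0040 to 1.000 kg/ha active compound in acetone/water with 0.5% TWEEN 20.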

## Cn1c(C(F)(F)F)cc(=O)n(-c2ccc3snc(-c4nccs4)c3c2)c1=O [Compound 53, 1-methyl-3-[3-(2-thiazolyl)-1,2-benzisothiazol-5-yl]-6-(trifluoromethyl)uracil]
[1]; Rate 0.0620 kg/ha
  Preemergence herbicidal rating IPOHE: 1.0
[1]; Rate 0.1250 kg/ha
  Preemergence herbicidal rating IPOHE: 3.0
[1]; Rate 0.2500 kg/ha
  Preemergence herbicidal rating IPOHE: 8.0
SETVI (Setaria viridis) [2]; Rate 0.0620 kg/ha
  Preemergence herbicidal rating SETVI: 9.0
SETVI (Setaria viridis) [2]; Rate 0.1250 kg/ha
  Preemergence herbicidal rating SETVI: 9.0
SETVI (Setaria viridis) [2]; Rate 0.2500 kg/ha
  Preemergence herbicidal rating SETVI: 9.0
[3]; Rate 0.0620 kg/ha
  Preemergence herbicidal rating ECHCG: 2.0
[3]; Rate 0.1250 kg/ha
  Preemergence herbicidal rating ECHCG: 4.5
[3]; Rate 0.2500 kg/ha
  Preemergence herbicidal rating ECHCG: 8.5
[4]; rate 0.0320 kg/ha
  ECHCG herbicidal rating: 1.0
[4]; rate 0.0620 kg/ha
  ECHCG herbicidal rating: 2.0
[4]; rate 0.1250 kg/ha
  ECHCG herbicidal rating: 1.0
CYPIR (Cyperus iria); rate 0.0080 kg/ha
  herbicidal rating, CYPIR: 9.0
CYPIR (Cyperus iria); rate 0.0320 kg/ha
  herbicidal rating, CYPIR: 8.3
CYPIR (Cyperus iria); rate 0.1250 kg/ha
  herbicidal rating, CYPIR: 9.0
[5]; rate 0.0080 kg/ha
  herbicidal rating, MOOVA: 9.0
[5]; rate 0.0320 kg/ha
  herbicidal rating, MOOVA: 9.0
[5]; rate 0.1250 kg/ha
  herbicidal rating, MOOVA: 9.0
GALAP (Galium aparine); rate 0.0320 kg/ha
  GALAP herbicidal rating: 2.5
GALAP (Galium aparine); rate 0.0620 kg/ha
  GALAP herbicidal rating: 3.0
GALAP (Galium aparine); rate 0.1250 kg/ha
  GALAP herbicidal rating: 7.0
[6]; rate 0.0320 kg/ha
  GLXMAW herbicidal rating: 6.8
[6]; rate 0.0620 kg/ha
  GLXMAW herbicidal rating: 8.3
[6]; rate 0.1250 kg/ha
  GLXMAW herbicidal rating: 8.0
[7]; rate 0.0080 kg/ha
  herbicidal rating, SAGPY: 0.0
[7]; rate 0.0320 kg/ha
  herbicidal rating, SAGPY: 4.3
[7]; rate 0.1250 kg/ha
  herbicidal rating, SAGPY: 9.0
[8]; Rate 0.0620 kg/ha
  Preemergence herbicidal rating AMBEL: 4.0
[8]; Rate 0.1250 kg/ha
  Preemergence herbicidal rating AMBEL: 8.0
[8]; Rate 0.2500 kg/ha
  Preemergence herbicidal rating AMBEL: 8.5
[9]; Rate 0.0620 kg/ha
  Preemergence herbicidal rating CHEAL: 9.0
[9]; Rate 0.1250 kg/ha
  Preemergence herbicidal rating CHEAL: 9.0
[9]; Rate 0.2500 kg/ha
  Preemergence herbicidal rating CHEAL: 9.0
[10]; Rate 0.0620 kg/ha
  Preemergence herbicidal rating CASOB: 0.0
[10]; Rate 0.1250 kg/ha
  Preemergence herbicidal rating CASOB: 1.0
[10]; Rate 0.2500 kg/ha
  Preemergence herbicidal rating CASOB: 3.0
[11]; rate 0.0080 kg/ha
  herbicidal rating, ECHORC: 3.0
[11]; rate 0.0320 kg/ha
  herbicidal rating, ECHORC: 9.0
[11]; rate 0.1250 kg/ha
  herbicidal rating, ECHORC: 9.0
[12]; rate 0.0320 kg/ha
  IPOHE herbicidal rating: 8.0
[12]; rate 0.0620 kg/ha
  IPOHE herbicidal rating: 9.0
[12]; rate 0.1250 kg/ha
  IPOHE herbicidal rating: 9.0
ORYSAT (Rice, Tebonnet) [13]; rate 0.0080 kg/ha
  herbicidal rating, ORYSAT (rice tolerance): 0.5
ORYSAT (Rice, Tebonnet) [13]; rate 0.0320 kg/ha
  herbicidal rating, ORYSAT (rice tolerance): 2.7
ORYSAT (Rice, Tebonnet) [13]; rate 0.1250 kg/ha
  herbicidal rating, ORYSAT (rice tolerance): 5.0
ORYSAT (Rice, Tebonnet) [14]; rate 0.0320 kg/ha
  ORYSAT herbicidal rating: 3.0
ORYSAT (Rice, Tebonnet) [14]; rate 0.0620 kg/ha
  ORYSAT herbicidal rating: 3.5
ORYSAT (Rice, Tebonnet) [14]; rate 0.1250 kg/ha
  ORYSAT herbicidal rating: 3.0
[15]; rate 0.0320 kg/ha
  ABUTH herbicidal rating: 9.0
[15]; rate 0.0620 kg/ha
  ABUTH herbicidal rating: 9.0
[15]; rate 0.1250 kg/ha
  ABUTH herbicidal rating: 9.0
ZEAMX (Corn, Field); rate 0.0320 kg/ha
  ZEAMX herbicidal rating: 4.5
ZEAMX (Corn, Field); rate 0.0620 kg/ha
  ZEAMX herbicidal rating: 5.0
ZEAMX (Corn, Field); rate 0.1250 kg/ha
  ZEAMX herbicidal rating: 5.5
ORYSAT (Rice, Tebonnet) [16]; Rate 0.0620 kg/ha
  Preemergence herbicidal rating ORYSAT: 1.0
ORYSAT (Rice, Tebonnet) [16]; Rate 0.1250 kg/ha
  Preemergence herbicidal rating ORYSAT: 3.0
ORYSAT (Rice, Tebonnet) [16]; Rate 0.2500 kg/ha
  Preemergence herbicidal rating ORYSAT: 5.0
SETVI (Setaria viridis) [17]; rate 0.0320 kg/ha
  SETVI herbicidal rating: 2.5
SETVI (Setaria viridis) [17]; rate 0.0620 kg/ha
  SETVI herbicidal rating: 5.5
SETVI (Setaria viridis) [17]; rate 0.1250 kg/ha
  SETVI herbicidal rating: 9.0
